According to patent US9895549B2, “On-demand drug release using magneto-electric nanoparticles” (priority 2012, dated 2018):

Test system: SKOV-3 cells
Experiment: Trypan-blue cell viability after field treatment, SKOV-3
Format: cell-based, human
Details: PTX drug +, no field, 24-hour
Text: After we confirmed that the drug-loaded MENs in the vicinity of the cancer cells indeed acted as a field-controlled valve to let the drug in (due to the effective nano-electroporation effect according to our hypothesis), we studied the viability of the cancer cells for different combinations of the drug and the carrier after the drug penetrated through the cell membrane. (Here, maintaining the remote field at 30 Oe provided the specificity to the cancer cells or, in other words, ensured that the healthy cells were intact.) The confocal images that were obtained after a 24-hour field treatment are in FIG. 13. The three key combinations of the carrier included (i) no particle, (ii) HER-2-GMO-MENs (Note: Here, HER-2 stands for the HER-2 biomarker antibody), and (iii) GMO-MENs, respectively. Accordingly, the three images (from left to right) in FIG. 13A show the morphology of the cancer cells after 24-hour treatment by (i) the free drug (with no particle carrier), (ii) drug-HER-2-GMO-MENs with no field applied, and (iii) drug-GMO-MENs in a 30-Oe d.c. field. The three control images in FIG. 13B show the morphology of the cancer cells after the 24-hour treatment by the same three combinations of the carrier with no drug present. In addition, we conducted the confocal imaging and the trypan-blue cell viability tests on both SKOV-3 and HOMEC cell lines after 24- and 36-hour field treatment. […]

CC(=O)O[C@H]1C(=O)[C@@]2(C)[C@H]([C@H](OC(=O)c3ccccc3)[C@]3(O)C[C@H](OC(=O)[C@H](O)[C@@H](NC(=O)c4ccccc4)c4ccccc4)C(C)=C1C3(C)C)[C@]1(OC(C)=O)CO[C@@H]1C[C@@H]2O [FREE, Paclitaxel]
Percentage Cells Alive: 86 ± 8.8%
